Data reported in ChEMBL document CHEMBL2203026.
Blank lines part the entries; values can stand above or below the molecule they belong to.

Legend:
[1] = molecular target: T1, Metabotropic glutamate receptor 3 (Homo sapiens, UniProt Q14832); assay: Negative allosteric modulation of mGlu3 assessed as thallium flux through GIRK channels by cell-based assay
Target sequence in this assay (Q14832 whole entry): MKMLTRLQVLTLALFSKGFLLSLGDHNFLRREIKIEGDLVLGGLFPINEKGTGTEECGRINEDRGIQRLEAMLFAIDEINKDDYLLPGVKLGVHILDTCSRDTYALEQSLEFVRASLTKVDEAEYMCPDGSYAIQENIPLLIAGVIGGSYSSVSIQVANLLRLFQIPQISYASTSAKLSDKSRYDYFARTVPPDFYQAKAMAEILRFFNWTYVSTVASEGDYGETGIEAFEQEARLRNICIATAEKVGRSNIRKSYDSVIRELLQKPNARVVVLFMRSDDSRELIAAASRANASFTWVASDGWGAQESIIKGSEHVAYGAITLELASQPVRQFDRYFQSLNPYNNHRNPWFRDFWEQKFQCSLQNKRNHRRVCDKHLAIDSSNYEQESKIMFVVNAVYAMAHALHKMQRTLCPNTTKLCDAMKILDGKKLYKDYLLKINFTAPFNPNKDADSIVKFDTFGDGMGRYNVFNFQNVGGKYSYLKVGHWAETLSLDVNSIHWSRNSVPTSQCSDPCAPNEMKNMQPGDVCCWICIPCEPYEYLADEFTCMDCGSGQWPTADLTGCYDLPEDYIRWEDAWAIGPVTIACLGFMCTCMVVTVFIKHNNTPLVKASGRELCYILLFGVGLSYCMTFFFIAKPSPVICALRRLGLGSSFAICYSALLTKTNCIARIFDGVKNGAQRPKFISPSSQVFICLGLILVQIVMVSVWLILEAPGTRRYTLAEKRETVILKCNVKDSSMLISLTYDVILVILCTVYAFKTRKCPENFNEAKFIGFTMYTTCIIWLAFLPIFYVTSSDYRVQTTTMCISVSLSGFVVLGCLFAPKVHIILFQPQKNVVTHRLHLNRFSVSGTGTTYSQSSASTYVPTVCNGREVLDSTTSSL

[2] = molecular target: T2, Metabotropic glutamate receptor 2 (Homo sapiens, UniProt Q14416); assay: Negative allosteric modulation of mGlu2 by cell-based assay
T2 sequence (Q14416 whole entry): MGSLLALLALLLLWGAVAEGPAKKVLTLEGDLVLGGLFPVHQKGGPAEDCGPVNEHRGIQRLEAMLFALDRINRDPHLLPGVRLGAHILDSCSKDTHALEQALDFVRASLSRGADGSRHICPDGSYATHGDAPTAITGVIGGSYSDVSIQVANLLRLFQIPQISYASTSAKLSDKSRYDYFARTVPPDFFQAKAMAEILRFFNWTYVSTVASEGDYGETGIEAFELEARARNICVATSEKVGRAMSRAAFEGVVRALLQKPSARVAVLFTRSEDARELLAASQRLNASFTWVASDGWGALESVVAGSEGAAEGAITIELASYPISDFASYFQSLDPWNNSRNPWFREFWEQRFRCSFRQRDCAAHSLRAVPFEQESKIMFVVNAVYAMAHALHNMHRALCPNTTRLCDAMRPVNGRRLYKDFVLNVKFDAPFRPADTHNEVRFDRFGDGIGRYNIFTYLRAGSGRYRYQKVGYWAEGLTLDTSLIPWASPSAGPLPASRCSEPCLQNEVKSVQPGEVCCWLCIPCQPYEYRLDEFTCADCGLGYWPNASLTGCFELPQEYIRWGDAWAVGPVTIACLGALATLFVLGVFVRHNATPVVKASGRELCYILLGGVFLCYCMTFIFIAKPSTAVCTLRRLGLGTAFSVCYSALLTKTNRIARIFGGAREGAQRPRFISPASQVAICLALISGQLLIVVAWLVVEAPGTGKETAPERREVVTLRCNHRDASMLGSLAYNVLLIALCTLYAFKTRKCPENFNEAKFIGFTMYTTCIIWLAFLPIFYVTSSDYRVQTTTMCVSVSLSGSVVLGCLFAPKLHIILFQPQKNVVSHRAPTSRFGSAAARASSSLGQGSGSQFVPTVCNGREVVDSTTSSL

[3] = molecular target: T1, Metabotropic glutamate receptor 3; assay: Negative allosteric modulation of mGlu3 assessed as inhibition of glutamate-induced thallium flux through GIRK channels by cell-based assay; parameters: concentration or dose not given beside the values; settings: concentration not given here
Target sequence in this assay (Q14832 23-879 limits assumed): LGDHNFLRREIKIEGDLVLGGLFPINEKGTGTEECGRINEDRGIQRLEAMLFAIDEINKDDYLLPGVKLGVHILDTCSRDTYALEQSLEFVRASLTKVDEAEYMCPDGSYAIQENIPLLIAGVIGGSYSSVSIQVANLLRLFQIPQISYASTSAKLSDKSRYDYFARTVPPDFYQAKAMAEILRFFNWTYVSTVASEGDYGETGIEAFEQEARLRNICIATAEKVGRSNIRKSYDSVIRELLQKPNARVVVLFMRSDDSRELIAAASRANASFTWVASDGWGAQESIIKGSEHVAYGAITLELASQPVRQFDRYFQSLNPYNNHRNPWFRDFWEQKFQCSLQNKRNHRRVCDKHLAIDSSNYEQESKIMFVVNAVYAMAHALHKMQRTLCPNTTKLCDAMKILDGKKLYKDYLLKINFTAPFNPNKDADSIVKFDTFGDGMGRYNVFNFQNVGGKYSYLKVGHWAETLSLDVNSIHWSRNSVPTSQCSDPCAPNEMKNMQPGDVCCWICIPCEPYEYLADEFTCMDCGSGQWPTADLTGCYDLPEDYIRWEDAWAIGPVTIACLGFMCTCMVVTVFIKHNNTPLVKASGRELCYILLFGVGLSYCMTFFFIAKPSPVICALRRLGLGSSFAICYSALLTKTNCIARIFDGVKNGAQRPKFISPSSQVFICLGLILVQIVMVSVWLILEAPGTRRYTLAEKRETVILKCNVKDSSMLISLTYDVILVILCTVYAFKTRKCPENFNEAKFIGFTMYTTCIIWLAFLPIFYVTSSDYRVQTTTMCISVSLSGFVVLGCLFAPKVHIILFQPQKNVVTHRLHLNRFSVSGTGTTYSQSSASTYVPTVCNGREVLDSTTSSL

[4] = molecular target: T2, Metabotropic glutamate receptor 2; assay: Negative allosteric modulation of human mGlu2 expressed in AV-12 cells in presence of glutamate EC90 concentration by FLIPR assay; assay type: cell-based, AV12
[5] = Selectivity index, ratio IC50 for mGlu2 to IC50 for mGlu3
[6] = molecular target: T2, Metabotropic glutamate receptor 2; assay: Negative allosteric modulation of mGlu2 assessed as thallium flux through GIRK channels by cell-based assay
[7] = molecular target: T1, Metabotropic glutamate receptor 3; assay: Negative allosteric modulation of human mGlu3 expressed in AV-12 cells in presence of glutamate EC90 concentration by FLIPR assay; assay type: cell-based, AV12
Target sequence in this assay (Q14832 whole entry): as the sequence (Q14832 whole entry) above

[8] = molecular target: T3, Metabotropic glutamate receptor 5 (Rattus norvegicus, UniProt P31424); assay: Positive allosteric modulation of rat mGlu5 expressed in HEK293 cells in presence of glutamate EC20 concentration by Fluo-2AM dye based fluorescence analysis; assay type: cell-based
Target sequence in this assay (P31424 whole entry): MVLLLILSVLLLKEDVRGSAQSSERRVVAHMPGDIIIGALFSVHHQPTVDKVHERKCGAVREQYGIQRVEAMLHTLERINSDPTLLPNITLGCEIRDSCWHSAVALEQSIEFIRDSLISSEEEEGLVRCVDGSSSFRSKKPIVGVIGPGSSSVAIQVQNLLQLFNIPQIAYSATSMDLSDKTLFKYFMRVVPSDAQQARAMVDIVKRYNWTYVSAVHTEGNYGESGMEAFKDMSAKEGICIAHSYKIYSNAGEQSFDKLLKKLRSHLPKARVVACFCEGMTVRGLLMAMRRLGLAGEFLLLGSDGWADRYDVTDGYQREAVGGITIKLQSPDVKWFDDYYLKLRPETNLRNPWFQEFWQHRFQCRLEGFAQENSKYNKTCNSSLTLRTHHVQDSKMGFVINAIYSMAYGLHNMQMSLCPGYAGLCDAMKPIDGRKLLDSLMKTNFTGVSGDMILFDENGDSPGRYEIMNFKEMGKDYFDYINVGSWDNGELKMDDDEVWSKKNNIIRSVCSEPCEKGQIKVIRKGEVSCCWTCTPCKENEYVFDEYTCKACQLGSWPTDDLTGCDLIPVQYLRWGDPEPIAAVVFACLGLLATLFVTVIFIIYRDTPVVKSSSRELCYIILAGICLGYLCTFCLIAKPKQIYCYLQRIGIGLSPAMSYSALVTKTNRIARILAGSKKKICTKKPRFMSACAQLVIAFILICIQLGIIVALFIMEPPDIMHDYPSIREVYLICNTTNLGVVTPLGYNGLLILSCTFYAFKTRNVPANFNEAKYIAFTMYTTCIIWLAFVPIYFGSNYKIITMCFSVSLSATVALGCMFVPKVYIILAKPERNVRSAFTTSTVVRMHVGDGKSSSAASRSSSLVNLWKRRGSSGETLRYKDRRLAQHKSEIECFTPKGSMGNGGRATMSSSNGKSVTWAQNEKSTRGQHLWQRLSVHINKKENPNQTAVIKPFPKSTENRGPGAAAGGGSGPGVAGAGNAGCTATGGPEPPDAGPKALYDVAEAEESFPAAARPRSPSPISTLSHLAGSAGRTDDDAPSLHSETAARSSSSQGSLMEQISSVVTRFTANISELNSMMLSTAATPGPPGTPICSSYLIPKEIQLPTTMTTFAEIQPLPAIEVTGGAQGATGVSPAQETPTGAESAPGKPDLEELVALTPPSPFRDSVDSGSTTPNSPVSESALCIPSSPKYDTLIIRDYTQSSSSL

[9] = molecular target: Metabotropic glutamate receptor 3 (Rattus norvegicus, UniProt P31422); assay: Negative allosteric modulation of rat mGlu3 assessed as assessed as thallium flux through GIRK channels by cell-based assay
Chain of Metabotropic glutamate receptor 3 (Rattus norvegicus, UniProt P31422) (P31422 whole entry): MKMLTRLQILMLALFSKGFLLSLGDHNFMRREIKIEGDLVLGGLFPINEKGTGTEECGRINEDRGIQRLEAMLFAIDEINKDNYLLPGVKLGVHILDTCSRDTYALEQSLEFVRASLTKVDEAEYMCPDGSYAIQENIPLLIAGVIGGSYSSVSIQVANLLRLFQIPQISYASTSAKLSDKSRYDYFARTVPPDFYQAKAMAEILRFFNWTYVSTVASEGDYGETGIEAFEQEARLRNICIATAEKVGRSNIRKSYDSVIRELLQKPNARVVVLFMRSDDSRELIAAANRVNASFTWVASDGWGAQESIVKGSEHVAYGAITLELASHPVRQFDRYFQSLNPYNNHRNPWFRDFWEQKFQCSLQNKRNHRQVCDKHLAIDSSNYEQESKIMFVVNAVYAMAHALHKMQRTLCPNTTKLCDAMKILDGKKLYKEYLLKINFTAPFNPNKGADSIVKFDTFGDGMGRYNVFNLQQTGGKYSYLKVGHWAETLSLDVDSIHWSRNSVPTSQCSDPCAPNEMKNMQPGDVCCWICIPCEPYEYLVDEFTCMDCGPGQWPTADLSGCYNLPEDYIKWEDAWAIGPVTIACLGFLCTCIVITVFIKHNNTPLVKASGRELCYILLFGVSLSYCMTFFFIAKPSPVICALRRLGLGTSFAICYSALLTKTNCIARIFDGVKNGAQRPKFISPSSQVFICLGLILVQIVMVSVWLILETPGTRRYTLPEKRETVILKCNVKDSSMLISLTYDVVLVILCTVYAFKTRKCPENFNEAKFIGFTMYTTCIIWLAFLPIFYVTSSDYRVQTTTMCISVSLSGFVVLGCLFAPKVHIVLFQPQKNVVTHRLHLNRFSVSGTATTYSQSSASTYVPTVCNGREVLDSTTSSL

[10] = Clearance in rat at 1 mg/kg, iv; assay type: ADME, organism-based; parameters: dose 1 mg/kg, route intravenous; settings: in vivo
Cytochrome P450 3A4 = Cytochrome P450 3A4 (Homo sapiens, UniProt P08684); assay: Inhibition of CYP3A4 in human liver microsomes; assay type: ADME, Microsome
[11] = Fraction unbound in human plasma; assay type: ADME, cell-free
Brain = assay: Drug level in rat brain at 10 mg/kg; assay type: ADME, organism-based; parameters: dose 10 mg/kg; settings: in vivo, read-out: Drug uptake
[12] = molecular target: T3, Metabotropic glutamate receptor 5; assay: Negative allosteric modulation of mGlu5 assessed as inhibition of glutamate-induced calcium mobilization by cell based assay; assay type: functional
Target sequence in this assay (P31424 whole entry, looked up): as the sequence (P31424 whole entry) above

Cytochrome P450 1A2 = molecular target: T4, Cytochrome P450 1A2 (Homo sapiens, UniProt P05177); assay: Inhibition of CYP1A2 in human liver microsomes; assay type: ADME, Microsome
T4 sequence (P05177 whole entry): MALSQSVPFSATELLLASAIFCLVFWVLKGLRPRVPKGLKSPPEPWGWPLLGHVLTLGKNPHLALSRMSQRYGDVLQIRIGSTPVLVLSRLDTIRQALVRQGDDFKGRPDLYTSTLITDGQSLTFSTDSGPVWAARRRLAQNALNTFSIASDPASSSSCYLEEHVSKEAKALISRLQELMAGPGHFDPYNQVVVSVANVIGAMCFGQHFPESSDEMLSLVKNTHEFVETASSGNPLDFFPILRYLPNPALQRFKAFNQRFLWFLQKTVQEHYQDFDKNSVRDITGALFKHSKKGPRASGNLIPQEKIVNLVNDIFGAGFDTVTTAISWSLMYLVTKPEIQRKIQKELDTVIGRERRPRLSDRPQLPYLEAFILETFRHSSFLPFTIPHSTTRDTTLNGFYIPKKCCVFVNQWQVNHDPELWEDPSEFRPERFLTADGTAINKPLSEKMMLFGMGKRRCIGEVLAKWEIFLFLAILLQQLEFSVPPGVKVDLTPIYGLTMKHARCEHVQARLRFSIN

[13] = Fraction unbound in rat plasma; assay type: ADME, cell-free
[14] = molecular target: T1, Metabotropic glutamate receptor 3; assay: Negative allosteric modulation of mGlu3 assessed as inhibition of glutamate-induced calcium mobilization in presence of Galpha15 by cell based assay; assay type: functional
Target sequence in this assay (Q14832 whole entry): as the sequence (Q14832 whole entry) above

Cytochrome P450 2C9 = Cytochrome P450 2C9 (Homo sapiens, UniProt P11712); assay: Inhibition of CYP2C9 in human liver microsomes; assay type: ADME, Microsome
[15] = Drug metabolism in human liver microsome assessed as CYP450-mediated (R)-(3-(hydroxymethyl)piperidin-1-yl)(4-((4-hydroxyphenyl)ethynyl)phenyl)methanone formation; assay type: ADME; settings: microsomes
Plasma = assay: Plasma concentration in rat at 10 mg/kg; assay type: ADME, organism-based; parameters: dose 10 mg/kg; settings: in vivo
[16] = Drug metabolism in rat liver microsome assessed as CYP450-mediated (R)-(3-(hydroxymethyl)piperidin-1-yl)(4-((4-hydroxyphenyl)ethynyl)phenyl)methanone formation; assay type: ADME; settings: microsomes
[17] = molecular target: T3, Metabotropic glutamate receptor 5; assay: Positive allosteric modulation of mGlu5 assessed as potentiation of glutamate-induced calcium mobilization by cell based assay; assay type: functional
Target sequence in this assay (P31424 whole entry, looked up): as the sequence (P31424 whole entry) above

Cytochrome P450 2D6 = Cytochrome P450 2D6 (Homo sapiens, UniProt P10635); assay: Inhibition of CYP2D6 in human liver microsomes; assay type: ADME, Microsome
[18] = Volume of distribution at steady-state concentration in rat at 1 mg/kg, iv; assay type: ADME, organism-based; parameters: dose 1 mg/kg, route intravenous; settings: in vivo, read-out: Vdss
[19] = Half life in rat at 1 mg/kg, iv; assay type: ADME, organism-based; parameters: dose 1 mg/kg, route intravenous; settings: in vivo
Nucleic Acid = assay: Ratio of drug level in brain to plasma of rat at 10 mg/kg; assay type: ADME, organism-based; parameters: dose 10 mg/kg
[20] = molecular target: T1, Metabotropic glutamate receptor 3; assay: Negative allosteric modulation of mGlu3 by cell-based assay
Target sequence in this assay (Q14832 whole entry): as the sequence (Q14832 whole entry) above

IC50 ([1]; read-out: pIC50 (converted)): 3.24 µM | IC50 [2]: > 10 µM | inhibition [3]: -1.7%
Structure (SMILES): COc1ccc(C#Cc2ccc(C(=O)N3CCC[C@H](CO)C3)cc2)cc1

IC50 ([1]; read-out: IC50): > 10 µM | inhibition [3]: 7.6%
Structure (SMILES): COc1ccc(C#Cc2ccc(C(=O)N3CCN(C(C)C)CC3)cc2)cc1

IC50 [4]: > 12.5 µM | IC50 ([1]; read-out: IC50): 4.2 µM | Ratio IC50 [5]: 4 | IC50 [6]: 17 µM | IC50 [7]: 0.19 µM
Structure (SMILES): Clc1ccc(CN[C@H]2CCN(c3ncc(Br)cn3)C2)c(Cl)c1

IC50 ([1]; read-out: IC50): 3.8 µM | inhibition [3]: 10.4%
Structure (SMILES): COc1ccc(C#Cc2ccc(C(=O)N3CCC(O)CC3)cc2)cc1

IC50 ([1]; read-out: IC50): 2.1 µM | inhibition [3]: 0.5%
Structure (SMILES): COc1ccc(C#Cc2ccc(C(=O)N3CCCC(CO)C3)cc2)cc1 (racemic)

EC50 [8]: 0.27 µM | IC50 [9]: > 10 µM
Structure (SMILES): O=C(c1ccc(C#Cc2ccccc2)cc1)N1CCC(O)CC1

clearance [10]: 33 mL/min/kg | IC50 (Cytochrome P450 3A4): > 30 µM | fraction unbound [11]: 0.02 | concentration (Brain): 16.3 µM | IC50 [12]: > 10 µM | IC50 (Cytochrome P450 1A2): > 30 µM | fraction unbound [13]: 0.01 | IC50 ([1]; read-out: IC50): 1.5 µM | IC50 [14]: 0.66 µM | IC50 (Cytochrome P450 2C9): > 30 µM | Drug metabolism [15]: Active | concentration (Plasma): 9.7 µM | Drug metabolism [16]: Active | EC50 [17]: > 10 µM | Ratio IC50 [5]: 15 | IC50 (Cytochrome P450 2D6): > 30 µM | IC50 [2]: > 10 µM | Vd [18]: 0.6 L/kg | half-life [19]: 16.8 min | BPR (Nucleic Acid): 1.67 | inhibition [3]: -4.4%
Structure (SMILES): COc1ccc(C#Cc2ccc(C(=O)N3CCC[C@@H](CO)C3)cc2)cc1

IC50 [20]: 0.27 µM | IC50 [2]: 0.296 µM
Structure (SMILES): Cc1cc(-c2cccc(C3=Nc4cc(C)c(C(F)(F)F)cc4NC(=O)C3)c2)cc(C)n1

IC50 ([1]; read-out: IC50): 5 µM | inhibition [3]: 4.4%
Structure (SMILES): COc1ccc(C#Cc2ccc(C(=O)N3CCC(C)(O)CC3)cc2)cc1

IC50 ([1]; read-out: IC50): > 10 µM | inhibition [3]: 9.6%
Structure (SMILES): CCN1CCC[C@H]1CC(=O)c1ccc(C#Cc2ccc(OC)cc2)cc1

IC50 ([1]; read-out: IC50): > 10 µM | inhibition [3]: 16.4%
Structure (SMILES): COc1ccc(C#Cc2ccc(C(=O)N3CCC[C@@H](C(=O)O)C3)cc2)cc1

IC50 ([1]; read-out: IC50): 2.5 µM | inhibition [3]: -1.1%
Structure (SMILES): COc1ccc(C#Cc2ccc(C(=O)N3CCCC(O)C3)cc2)cc1 (centres undefined)

IC50 ([1]; read-out: IC50): 5.7 µM | inhibition [3]: 2.2%
Structure (SMILES): COc1ccc(C#Cc2ccc(C(=O)N3CCC[C@H](C(=O)O)C3)cc2)cc1
